Patent publication US5045566A, “Novel imidate insecticides” (ICI Americas Inc., priority 1989, dated 1991)

Experiments:
Format in all cases: in vivo
[1] = test system: Housefly [Musca domestica]; test: Housefly contact mortality in dishes (HF), 48 hours; conditions: μg of test compound per 25 female flies
How it was run: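 Dose range started at 100 μg per 25 female flies and went downward. Insects (1-2 days old) contacted a dried acetone/peanut-oil deposit in dishes; LC50 values come from dosage-mortality curves at 48 h.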

[2] = test system: Black Bean Aphid [Aphis fabae (Scop.)]; test: Black bean aphid spray test on nasturtium (BBA), 48 hours; conditions: percent of test compound in sprayed solution
How it was run: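 LC50, given as percent test compound in the sprayed liquid, was calculated from dosage-mortality curves using concentrations from 0.05% downward. Sprays in 50:50 acetone-water went to runoff on ~5 cm nasturtiums carrying 25-50 aphids of mixed ages, one day after infestation. Deaths were counted 48 h later under greenhouse conditions.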

[3] = test system: Tobacco Budworm [Heliothis virescens (Fabricius)] eggs; test: Tobacco budworm eggs (TBW-E); conditions: percent in solution; 2-day old eggs
How it was run: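 LC50 values (percent test compound in the dip solution) were calculated from dosage-mortality curves. Egg patches, 2 days old, were dipped in acetone solutions at concentrations from 0.1% downward and held at 78° F on rearing medium until control larvae hatched and fed.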

[4] = test system: Cabbage Looper [Trichoplusia ni (Hubner)]; test: Cabbage looper leaf dip (CL), 3-5 days; conditions: percent in solution, second-instar larvae
How it was run: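 Leaf dip, squash cotyledons, 50-50 acetone-water, top dose 0.1% and lower. 5 second-instar larvae/dish, moist filter paper, high-humidity chamber. Mortality at 3-5 d; LC50 (% in solution) from dosage-mortality curves.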

[5] = test system: Aster Leafhopper [Macrosteles fascifrens (Stal)]; test: Aster leafhopper on dipped oat seedlings (LH), 48 hours; conditions: percent in solution, adults/nymphs
How it was run: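 Three ~10 cm oat seedlings per cup were dipped 2-3 seconds in 50-50 acetone-water compound solutions, dried, and caged with ten adult/nymph leafhoppers. Mortality was counted after 48 hours at concentrations from 0.05% downward. LC50, as percent compound in solution, came from dosage-mortality curves.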

[6] = test system: Maize weevil [Sitophilus zeamais (Motschulsky)]; test: Maize weevil on dipped corn seeds (MW), 48 hours; conditions: percent in solution, adult weevils
How it was run: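 LC50, given as percent of compound in dipping solution, comes from dosage-mortality curves over concentrations descending from 0.01%. Four corn seeds soaked 2-3 s in 50:50 acetone:water solution were dried and held with 10 adult weevils, about 25° C, mortality read after 48 h.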

SMILES	LC50 HF [1] [µg]	LC50 BBA [2] [%]	LC50 TBW E (eggs) [3] [%]	LC50 CL [4] [%]	LC50 LH [5] [%]	LC50 MW [6] [%]
COCc1c(F)c(F)c(COC(=Nc2ccc(C(C)(C)C)cc2)C(C)C)c(F)c1F [Compound 544]	> 100	0.005	> 0.1	> 0.1	> 0.05	> 0.01
CC(C)C(=Nc1ccc2c(c1)OCCO2)OCc1cccc(Oc2ccccc2)c1 [Compound 179]	13	0.003	> 0.1	0.004	0.005	> 0.01
CC(C)C(=Nc1ccc(F)cc1)OCCc1cccc(Oc2ccccc2)c1 [Compound 456]	> 100	0.01	> 0.05	0.017	> 0.05	> 0.01
CC(C)C(=Nc1ccc(OC(F)(F)F)cc1)OCc1cccc(Cc2ccccc2)c1 [Compound 542]	> 100	> 0.05	> 0.1	> 0.01	> 0.05	> 0.01
CC(C)C(=Nc1ccc(-c2ccccc2)cc1)OCc1cccc(Oc2ccccc2)c1 [Compound 186]	> 100	> 0.05	> 0.1	0.008	> 0.05	> 0.01
CC(C)C(=Nc1ccc(F)c(Cl)c1)OCc1cccc(Cc2ccccc2)c1 [Compound 537]	20	> 0.05	> 0.1	> 0.1	> 0.05	> 0.01
Fc1ccc(N=C(OCc2cccc(Oc3ccccc3)c2)C(F)(F)C(F)(F)F)cc1Cl [Compound 117]	55	> 0.05	> 0.1	0.006	0.0003	> 0.01
CCS(=O)(=O)c1ccc(N=C(OCc2cccc(Oc3ccccc3)c2)C(C)C)cc1Cl [Compound 112]	> 100	0.05	> 0.1	0.025	> 0.05	> 0.01
CC(C)C(=Nc1ccc(F)cc1)OCc1cccc(Oc2ccc(Br)cc2)c1 [Compound 259]	15	0.006	0.05	0.0003	> 0.05	> 0.01
CSc1ccc(N=C(OCc2cccc(Oc3ccccc3)c2)C(C)C)cc1 [Compound 142]	15	0.001	0.1	0.005	> 0.05	> 0.01
Cc1cccc(N=C(OCc2cccc(Oc3ccc(Cl)cc3)n2)C(C)C)c1 [Compound 545]	< 100	0.005	> 0.1	> 0.1	> 0.05	> 0.01
CC(C)C(=Nc1ccc(F)c(Cl)c1)OCc1ccc(OCc2ccccc2)cc1 [Compound 475]	> 100	> 0.05	> 0.1	0.008	> 0.05	> 0.01
CC(C)C(=Nc1ccc(F)c(Cl)c1)OCc1cc(Oc2ccc(Cl)cc2)ccn1 [Compound 516]	> 100	> 0.05	> 0.1	0.008	> 0.05	> 0.01
CC(C)C(=Nc1ccccc1Br)OCc1cccc(Oc2ccccc2)c1 [Compound 132]	65	0.0025	> 0.1	0.025	> 0.05	> 0.01
CC(C)C(=Nc1cccc(C(C)(C)C)c1)OCc1cccc(Oc2ccc(F)cc2)c1 [Compound 350]	> 100	> 0.05	> 0.1	0.0045	> 0.05	> 0.01
Fc1ccc(N=C(OCc2cccc(Oc3ccccc3)c2)C(F)F)cc1 [Compound 50]	43	0.01	> 0.05	0.02	> 0.05	> 0.01
CC(C)(F)C(=Nc1ccc(F)c(Cl)c1)OCc1cc(Oc2ccc(F)cc2)ccc1F [Compound 316]	100	> 0.05	> 0.1	0.0015	> 0.05	> 0.01
CCC(=Nc1ccc(Cl)cc1)OCc1cccc(Oc2ccccc2)c1 [Compound 11]	6	0.01	> 0.1	0.025	> 0.05	> 0.01
Cc1ccc(N=C(OCc2ccc(F)c(Oc3ccccc3)c2)C(C)C)cc1F [Compound 354]	< 100	0.001	0.018	> 0.1	< 0.05	0.0068
CC(C)C(=Nc1cccc([N+](=O)[O-])c1)OCc1cccc(Oc2ccc(Cl)cc2)c1 [Compound 271]	27	> 0.05	0.1	0.0004	> 0.05	> 0.01
CC(C)C(=Nc1ccc(C(F)(F)F)cc1)OCc1cccc(Cc2ccccc2)c1 [Compound 543]	< 100	0.003	> 0.1	0.0008	< 0.05	> 0.01
CCC(=Nc1ccc(F)c(F)c1)OCc1coc(Cc2ccccc2)c1 [Compound 524]	5.2	> 0.05	> 0.1	> 0.1	> 0.05	> 0.01
CC(C)C(=Nc1ccc(C(F)(F)F)cc1)OCc1cccc(Cc2ccccc2)c1 [Compound 535]	41	> 0.05	> 0.1	> 0.1	> 0.05	> 0.01
COc1cccc(N=C(OCc2cccc(Oc3ccccc3)c2)C(C)C)c1 [Compound 143]	10	0.002	< 0.1	0.002	0.006	> 0.01
